Data published in US12042545B2, “Encapsulated extracellular vesicles” (THE BOARD OF TRUSTEES OF THE UNIVERSITY OF ILLINOIS, priority 2020, dated 2024).
Ends that are not written are not given here.

Test: Bulk transport experiments: release from alginate hydrogels
Details: not given

| Compound | effect of treatment on EV release from hydrogels |
| --- | --- |
| NC1=N[C@H](O)[C@H]2[C@H]3O[C@]4(O)O[C@@H]([C@@H](O)[C@@]2(N1)[C@@H]4O)[C@]3(O)CO [tetrodotoxin] | significantly increased EV release in soft and stiff stress relaxing hydrogels |

Same assay, conditions: EVs encapsulated in alginate hydrogels, agent added or tethered

| Compound | effect of treatment on EV release from hydrogels |
| --- | --- |
| Cc1ccc2c(c1)C(=O)C1(O)CCN(c3ccccc3)C1=N2 (stereo not drawn) [blebbistatin] | did not affect the EV release |
| O=C(O)CN(CCOCCOCCN(CC(=O)O)CC(=O)O)CC(=O)O [EGTA] | did not affect the release |
| C[C@@H](N)[C@H]1CC[C@H](C(=O)Nc2ccncc2)CC1 [Y27632] | did not affect the EV release |
| GsMTx4: a selective inhibition of cation-permeable mechanosensitive channels (GCLEFWWKCNPNDDKCCRPKLKCSKLFKLCNFSF; ends and bridges not checked; cysteine pairing not given here; UniProt Q7YT39 47-80, looked up) | increased EV release in stiff stress relaxing hydrogels |
| CCN(c1nc(N)c(C(=O)NC(=N)N)nc1Cl)C(C)C [EIPA] | did not alter EV release from the hydrogels |
| O=C(O)c1cc([N+](=O)[O-])ccc1NCCCc1ccccc1 [NPPB] | did not alter EV release from the hydrogels |
| C[C@H](CCC(=O)O)C[C@H](C)C[C@H](C)C(=O)/C=C(\O)[C@H](C)C[C@H](C)C/C=C/[C@@H](C)[C@@H](O)[C@@H](C)[C@@H](O)C[C@@H]1CC[C@@](C)([C@H]2CC[C@@](C)([C@@H](C)O)O2)O1 [ionomycin] | did not affect the release |

Same assay, conditions: added to EV preparations during lyophilization

| Compound | release behavior of lyophilized EVs with cryoprotectant |
| --- | --- |
| OC[C@H]1O[C@H](O[C@H]2O[C@H](CO)[C@@H](O)[C@H](O)[C@H]2O)[C@H](O)[C@@H](O)[C@@H]1O [trehalose] | recovered release behavior |
